Among the data in PubChem BioAssay (NCI) are GI50 and TGI values, retold here.

Some test systems named below: UACC-257 melanoma; CCRF-CEM leukemia; K-562 leukemia; RPMI-8226 leukemia; NCI-H522 lung; CAKI-1 renal; T-47D breast; OVCAR-4 ovarian.
Assay in all cases: inhibition of tumour cell growth, NCI panel, 48 h

“And” between values parts separate entries of the source, which are not always exact repeats. Equal entries are not always repeated.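 Tested at 5 concentrations; 48 h exposure; 96-well plates; endpoints linearly interpolated, else capped at highest concentration. At the GI50, growth is halved. TGI denotes the concentration required for complete inhibition of growth.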 Some results are limits rather than exact numbers.

Consider `CCOC(=O)C1=C(C)NC2SC(=O)/C(=C\c3ccccc3O)N2C1c1ccccc1` (configuration not stated), for which the GI50 in the test on UACC-257 melanoma is 42.4 µM; in the test on CCRF-CEM leukemia, 10.2 µM; in the test with K-562 leukemia it was 26.6 µM; with RPMI-8226 leukemia, 18.6 µM; in the test on NCI-H522 lung it was 26.2 µM; in the test with CAKI-1 renal, 36.8 µM. Also, the GI50 in the test with T-47D breast is 16.1 µM. The TGI is over 100 µM with UACC-257 melanoma; 75.2 µM in the test with CCRF-CEM leukemia; over 100 µM in the test with K-562 leukemia; 53.6 µM in the test with RPMI-8226 leukemia; 76.3 µM in the test on NCI-H522 lung; over 100 µM in the test with CAKI-1 renal. This compound came in with a TGI in the test with T-47D breast of 51.7 µM.
With `O=C(Nc1ccc(CN2CCOCC2)cc1)c1[nH]ncc1Nc1ncnc2sccc12`, the GI50 was 0.6 µM with OVCAR-4 ovarian; 1.96 µM with UACC-257 melanoma; 0.337 µM in the test with CCRF-CEM leukemia; 0.402 µM in the test on K-562 leukemia; 0.517 µM in the test on RPMI-8226 leukemia; 0.413 µM with NCI-H522 lung. Further, the GI50 was 0.477 µM in the test on CAKI-1 renal and 0.739 µM in the test with T-47D breast. Besides, the TGI is 6.28 µM in the test with OVCAR-4 ovarian; 25.2 µM in the test with UACC-257 melanoma; 27.7 µM in the test on CCRF-CEM leukemia; over 100 µM in the test with K-562 leukemia; 4.33 µM in the test on RPMI-8226 leukemia; 4.17 µM with NCI-H522 lung. In addition, the TGI in the test on CAKI-1 renal and with T-47D breast was over 100 µM each time.
For the compound `O=C(Nc1cccc(Oc2nnc(Cl)c3ccccc23)c1)Nc1ccc(Cl)c(C(F)(F)F)c1`, the GI50 is 0.593 µM with OVCAR-4 ovarian; 0.952 µM in the test with UACC-257 melanoma; 0.208 µM with CCRF-CEM leukemia; 0.63 µM in the test on K-562 leukemia; 0.336 µM in the test with RPMI-8226 leukemia; 0.499 µM in the test with NCI-H522 lung. The GI50 is 0.832 µM in the test on CAKI-1 renal and 0.384 µM in the test with T-47D breast. Also, the TGI in the test on OVCAR-4 ovarian turned out to be 6.01 µM; in the test on UACC-257 melanoma, 3.37 µM; in the test with CCRF-CEM leukemia it was 17.5 µM; with K-562 leukemia, 4.27 µM; in the test on RPMI-8226 leukemia, 1.51 µM; with NCI-H522 lung, 3.46 µM. Also, the values for the TGI in the test with CAKI-1 renal and in the test with T-47D breast were 6.5 µM and 2.24 µM, respectively.
`O=[N+]([O-])c1ccc2c(N3CCC(CCCC4CCN(c5ncnc6cc([N+](=O)[O-])ccc56)CC4)CC3)ncnc2c1`: the GI50 in the test with OVCAR-4 ovarian is 21.5 µM; in the test with UACC-257 melanoma, 1.55 µM; with CCRF-CEM leukemia it was 44.7 µM; in the test on K-562 leukemia it was 0.217 µM; with RPMI-8226 leukemia it was 0.388 µM; with NCI-H522 lung, over 45.9 µM. In addition, the results for the GI50 in the test with CAKI-1 renal and with T-47D breast were 5.29 µM and 0.454 µM, respectively. Moreover, the TGI in the test on OVCAR-4 ovarian is over 100 µM; in the test on UACC-257 melanoma, over 100 µM; with CCRF-CEM leukemia, over 100 µM; with K-562 leukemia it was over 100 µM; in the test on RPMI-8226 leukemia, 96.9 µM; with NCI-H522 lung, over 100 µM. Moreover, the TGI is over 100 µM with CAKI-1 renal and over 69.3 µM in the test on T-47D breast.
Consider `O=C1C2=Nc3ccccc3C(O)N2c2ccccc21` (configuration not stated), for which the TGI in the test on OVCAR-4 ovarian is over 100 µM; with UACC-257 melanoma it was 16.5 µM; in the test on CCRF-CEM leukemia, over 100 µM; with K-562 leukemia, over 100 µM; in the test with RPMI-8226 leukemia, over 100 µM; in the test on NCI-H522 lung, 32.6 µM. For the same compound, the TGI with CAKI-1 renal and in the test with T-47D breast was over 100 µM each time.
As for `Cn1nnnc1N/N=C/c1ccccc1`, the TGI in the test on OVCAR-4 ovarian, in the test with UACC-257 melanoma, in the test with CCRF-CEM leukemia, in the test with K-562 leukemia, in the test on RPMI-8226 leukemia and in the test on NCI-H522 lung was over 10 µM in each case. Moreover, the TGI in the test with CAKI-1 renal and in the test on T-47D breast was over 10 µM each time.
Regarding `CCOC(=O)c1c2c(n(Cc3ccccc3)c1C)-c1ccccc1C(=O)C2=O`, the GI50 with OVCAR-4 ovarian was 10.9 µM; with UACC-257 melanoma it was 28.4 µM; in the test with CCRF-CEM leukemia, 3.36 µM; in the test on K-562 leukemia, 17.1 µM; in the test with RPMI-8226 leukemia, 13.2 µM; with NCI-H522 lung, 14.8 µM. In addition, the GI50 is 17.2 µM in the test on CAKI-1 renal and 13.2 µM with T-47D breast. The TGI in the test with OVCAR-4 ovarian was 25.4 µM; in the test on UACC-257 melanoma, 69.2 µM; with CCRF-CEM leukemia it was 13.5 µM; in the test on K-562 leukemia, over 100 µM; in the test with RPMI-8226 leukemia, 62.2 µM; in the test with NCI-H522 lung it was 35.5 µM. In addition, the TGI with CAKI-1 renal turned out to be 36.6 µM; in the test with T-47D breast it was 31.8 µM.
On to `CNC(=O)c1ccc2cc(C3(O)CCn4cncc43)ccc2c1` (configuration not stated), for which the GI50 in the test with OVCAR-4 ovarian, in the test on UACC-257 melanoma, in the test with CCRF-CEM leukemia, in the test on K-562 leukemia, in the test on RPMI-8226 leukemia and with NCI-H522 lung was over 100 µM each time. Besides, the GI50 in the test with CAKI-1 renal and in the test on T-47D breast was over 100 µM throughout. Further, the TGI with OVCAR-4 ovarian, in the test on UACC-257 melanoma, in the test on CCRF-CEM leukemia, with K-562 leukemia, in the test on RPMI-8226 leukemia and with NCI-H522 lung was over 100 µM each time. The TGI in the test on CAKI-1 renal and in the test with T-47D breast was over 100 µM each time.
On to `C/C1=C/C2=CC(C)C[C@@H]2C(=O)[C@]2(C)C(=O)CC(C)(C)[C@H]2CC1=O` (some centres not stated), for which the TGI with OVCAR-4 ovarian, in the test with UACC-257 melanoma, in the test on CCRF-CEM leukemia, with K-562 leukemia, with RPMI-8226 leukemia and in the test with NCI-H522 lung was over 50 µM in each case. Further, the TGI in the test with CAKI-1 renal and in the test with T-47D breast was over 50 µM throughout.
On to `CN(C)CCOc1ccc(/C(=C(/CCCl)c2ccccc2)c2ccccc2)cc1`, for which the GI50 in the test with OVCAR-4 ovarian was 1.47 µM; with UACC-257 melanoma, 0.943 µM; in the test on CCRF-CEM leukemia, 1.06 µM; in the test on K-562 leukemia, 1.02 µM; with RPMI-8226 leukemia, 1.03 µM; with NCI-H522 lung, 0.9 µM. The GI50 with CAKI-1 renal is 0.979 µM; with T-47D breast, 0.841 µM. In addition, the TGI in the test on OVCAR-4 ovarian was 5.1 µM and 32.9 µM; in the test on CCRF-CEM leukemia, 2.85 µM and 23.5 µM; in the test with K-562 leukemia, 2.46 µM and 23.6 µM; in the test with RPMI-8226 leukemia, 2.5 µM and 23.6 µM; in the test with CAKI-1 renal, 3.73 µM and 29.7 µM.
On to `C=C(C)C1CC2(C)C(C)CC(OC(=O)/C(C)=C\C)CC2C(OC(=O)/C(C)=C\C)C1O` (configuration not stated), for which the TGI is over 100 µM with OVCAR-4 ovarian; over 100 µM in the test with UACC-257 melanoma; 45.8 µM in the test with CCRF-CEM leukemia; over 100 µM with NCI-H522 lung; over 100 µM with CAKI-1 renal; over 100 µM in the test with T-47D breast.
